Measured values reported in patent US5516777A, “Condensed pyrazole derivatives, and androgen inhibitor” (Otsuka Pharmaceutical Co., Ltd., priority 1992, dated 1996).

How the values were obtained:
[1] = Oral absorption (blood level after oral administration); type: in vivo; conditions: Wistar male rat, 30 mg/ml/kg, serum
Description: After administration, the rat is fixed on a plate with nails and strings. […] The serum was obtained by centrifuging with a blood serum separating tube ([…] tube). To 100 μl of the serum thus obtained was added 300 μl of methanol, and the mixture was centrifuged. Next, 50 μl of the supernatant was applied to a high-performance liquid chromatography, and the blood level of the compound was measured. Conditions of the high-performance liquid chromatography are as follows: Column: […] 300, 4.6 mm diameter and 150 mm length Eluent: 48% CH3 CN-0.01% TFA Flow rate: 1 ml/minute Detection: UV 290 nm Sensitivity: 0.01 AUFS Colume temperature: 50° C. As Comparative Example 10, the compound expressed in the following chemical formula disclosed in U.S. Pat.

[2] = target: T1, rat prostate androgen receptor (Rattus norvegicus, UniProt P15207); conditions: 1 nM ^3 H-mibolerone, 20 hours at 0° C., rat ventral prostate cytosol; read-out: Inhibitory activity on mibolerone specific binding [IC50 (M)]
T1 sequence (P15207 1-902): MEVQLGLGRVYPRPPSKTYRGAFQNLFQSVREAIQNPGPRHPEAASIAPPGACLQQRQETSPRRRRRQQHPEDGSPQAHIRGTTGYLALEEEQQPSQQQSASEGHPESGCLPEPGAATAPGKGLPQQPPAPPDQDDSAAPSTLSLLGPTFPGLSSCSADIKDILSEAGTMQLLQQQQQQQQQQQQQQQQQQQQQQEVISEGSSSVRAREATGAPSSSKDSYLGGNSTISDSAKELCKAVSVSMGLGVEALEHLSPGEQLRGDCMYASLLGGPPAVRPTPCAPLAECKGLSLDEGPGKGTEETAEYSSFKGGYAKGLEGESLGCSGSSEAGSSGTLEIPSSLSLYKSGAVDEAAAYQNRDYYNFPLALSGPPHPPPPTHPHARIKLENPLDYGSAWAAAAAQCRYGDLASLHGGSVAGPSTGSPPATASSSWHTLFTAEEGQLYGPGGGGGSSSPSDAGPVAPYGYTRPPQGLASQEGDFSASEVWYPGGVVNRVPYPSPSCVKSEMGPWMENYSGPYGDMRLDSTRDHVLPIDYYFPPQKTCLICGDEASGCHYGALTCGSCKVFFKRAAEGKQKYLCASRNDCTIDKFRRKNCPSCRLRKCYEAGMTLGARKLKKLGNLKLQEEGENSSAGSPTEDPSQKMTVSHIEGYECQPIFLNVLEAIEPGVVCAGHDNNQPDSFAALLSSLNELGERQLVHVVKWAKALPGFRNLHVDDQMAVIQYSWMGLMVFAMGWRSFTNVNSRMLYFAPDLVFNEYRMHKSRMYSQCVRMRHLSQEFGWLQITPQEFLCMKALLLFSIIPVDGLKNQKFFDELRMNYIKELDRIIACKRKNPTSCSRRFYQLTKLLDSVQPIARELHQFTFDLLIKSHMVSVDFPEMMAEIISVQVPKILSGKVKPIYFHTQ
Description: Assay of inhibitory activity to binding of ^3 H-mibolerone on rat prostate androgen receptor
(1) Preparation of Cytosol from Rat Prostate
The rats were killed 24 hours after castration, and the ventral prostate glands were removed, and was gently homogenized, with three volume of buffer solution A (1.5 mM EDTA, 2 mM dithiothreitol, 10 mM molybdate sodium, 10% by volume of glycerol, 10 mM NaF, 25 mM phosphate sodium, pH 7.2) on ice-water bath, in Polytron, and Potter type homogenizer. The obtained homogenate was filtrated through double gauze, and centrifuged at 105,000×g for 60 minutes at 4° C., and the supernatant was obtained as cytoplasm fraction.
(2) Measurement of Specific binding of ^3 H-mibolerone to Prostate Cytoplasm Androgen Receptor
To the cytoplasm fraction obtained in (1) was added ^3 H-mibolerone (87.0 Ci/millimol), so that a final concentration is adjusted to 1 nM, and at the same time, in order to block binding of ^3 H-mibolerone to progestin receptor, triamsinolone acetonide was added to a final concentration of 5 μM, and the final volume was adjusted to 0.4 ml with buffer solution A, and the reaction mixture was incubated for 20 hours at 0° C. After incubation, 0.5 ml of 60% hydroxylapatite slurry (washed and equilibrate with a buffer solution B: 10 mM NaH2 PO4, 20 mM tris-hydrochloric acid, pH 7.2) was added, and incubated for 10 minutes at 0° C., the solution was transferred onto a glass fiber filter, and washed five times with 5 ml portions of buffer solution B containing 0.1% (weight/volume) of Triton X-100, to remove free ^3 H-mibolerone. This glass fiber was transferred into vial, and 10 ml of aquasol- 2 was added, and the radioactivity was measured, and the total binding amount of ^3 H-mibolerone on prostate cytoplasm androgen receptor was determined.
The nonspecific binding amount was determined similarly by adding an unlabeled 5α-DHT in the reaction solution to a final concentration of 1 μM. The difference between the total binding amount and nonspecific binding amount was determined as the specific binding amount on the androgen receptor.
(3) Inhibitory Activity of Sample Compounds on ^3 H-mibolerone Specific Binding
The various concentrations of compounds obtained in the experiments were added simultaneously with ^3 H-mibolerone to incubate same as in (2), and the specific binding amount of ^3 H-mibolerone on androgen receptor was determined. Comparing this value with the value obtained in (2), the IC50 value of inhibitory activity of the compounds on ^3 H-mibolerone specific binding was determined.

[3] = In vitro drug metabolism in rat liver extract; type: in vitro ADME, male Wistar rats; conditions: pH 7.4, 37° C.; for remaining at 5 min / remaining at 0.25 h / remaining at 0.5 h / remaining at 1 h: rat liver extract; for remaining at 5 min: read-out: Residual amount of test compound, 5 min.; for remaining at 0.25 h: 15 min., read-out: Residual amount of test compound, 15 min.; for remaining at 0.5 h: 30 min., read-out: Residual amount of test compound, 30 min.; for remaining at 1 h: 60 min., read-out: Residual amount of test compound, 60 min.; for half-life: half-life in the rat liver extract, read-out: Half-time period
Description: 2. In vitro drug metabolism in rat liver extract
The resistance of the compound against metabolic degradation by rat liver extract was investigated.
The male Wistar rats (weighing about 200 g) were used after fasting for 24 hours. The rat was sacrificed under ether anesthesia, and the livers were removed and were placed onto the ice.
The liver was minced with scissors under ice-cooling, and homogenized in the presence of 4 volumes of 1.15% KCl-0.1M phosphate buffer (pH 7.4) with a Potter type homogenizer. The homogenates were centrifuged at 9,000×g for 10 minutes at 4° C., and the supernatant filtered through the cheese-cloth was used as an enzyme solution.
The constitution of the reaction mixture was shown in below. 0.1M Buffer was sufficiently bubbled in 95% O2 -5% CO2 gas before use.
Glucose 6-phosphate (60.8 mg.ml)
Nicotineamide (9.16 mg/ml)
The tested samples were dissolved in dimethyl sulfoxide. MgCl2 ·6H2 O was dissolved in a distilled water, and all other reagents were dissolved in 0.1M phosphate buffer. The reaction was initiated by adding enzyme solution, and shaked at 37° C. with 120 cycles/minutes in Spitz test tubes with stoppers. The reaction was stopped by adding methanol after 5, 15, 30 and 60 minutes.
After termination of the reaction, samples were mixed by using of a Vortex mixer, and centrifuged at 3,000 rpm for 10 minutes. The supernatant was applied to a high-performance liquid chromatography of which conditons are shown in below. A residual amount of the mother compound was determined at certain time intervals, whererby half-life of the compound in the rat liver extract was calculated.
Column: Chemcosorb 5C18-300 Å 4.6 mm diameter and 150 mm length
Colume temperature: 50° C.

Compound	concentration at 4 h ([1]; 30 mg/kg) [ng/mL]	concentration at 8 h ([1]; 30 mg/kg) [ng/mL]	Blood Level, 20 minutes ([1]; 20 minutes) [ng/mL]	Blood Level, 1 hours ([1]; 1 hour) [ng/mL]	Blood Level, 2 hours ([1]; 2 hours) [ng/mL]	IC50 [2] [M]	remaining at 5 min [3] [%]	remaining at 0.25 h [3] [%]	remaining at 0.5 h [3] [%]	remaining at 1 h [3] [%]	half-life [3] [h]	concentration at 20 min ([1]; 30 mg/kg, 20 minutes) [ng/mL]	concentration at 1 h ([1]; 30 mg/kg, 1 hour) [ng/mL]	concentration at 2 h ([1]; 30 mg/kg, 2 hours) [ng/mL]
CCc1ccccc1NS(=O)(=O)c1ccc(-c2cnn3c(O)ncnc23)cc1 [Comparative Example 10, reference compound]	112	31	0	0	0									
Oc1ncnc2c(-c3ccc(Cc4ccccc4)cc3)cnn12 [Example 1, 8-(4-benzylphenyl)-4-hydroxypyrazolo[1,5-a]-1,3,5-triazine]	1420	731				2.8e-07	92.2	62.4	60.2	42.9	0.75	1590	2690	1250
COc1cccc(Cc2ccc(-c3cnn4c(O)ncnc34)cc2OC)c1 [Example 11]						1.8e-08	98.3	98.8	91.5	87.9	> 1			
COc1cc(-c2cnn3c(O)ncnc23)ccc1Cc1cccc(C)c1 [Example 12]						2.3e-08	93	91.8	97.4	90.8	> 1			
Cc1cccc(Cc2ccc(-c3cnn4c(O)ncnc34)cc2)c1 [Example 13, 4-hydroxy-8-[4-(3-methylphenylmethyl)phenyl]pyrazolo[1,5-a]-1,3,5-triazine]						1.2e-07	106	100	97.6	81.4	> 1			
Cc1ccccc1Cc1ccc(-c2cnn3c(O)ncnc23)cc1 [Example 14, 4-hydroxy-8-[4-(2-methylphenylmethyl)phenyl]pyrazolo[1,5-a]-1,3,5-triazine]						6.4e-07	82.9	77.8	82.5	55.5	> 1			
COc1cccc(Cc2ccc(-c3cnn4c(O)ncnc34)cc2)c1 [Example 15, 4-hydroxy-8-[4-(3-methoxyphenylmethyl)phenyl]pyrazolo[1,5-a]-1,3,5-triazine]						9.9e-08	86.1	68.9	64.7	51.9	> 1			
CC(c1ccccc1)c1ccc(-c2cnn3c(O)ncnc23)cc1 (stereo not drawn) [Example 19, 4-hydroxy-8-[4-(α-methylbenzyl)phenyl]pyrazolo[1,5-a]-1,3,5-triazine]						3.9e-08	94.4	84.7	68.3	42.4	0.867			
COc1cccc(Cc2ccc(-c3cnn4c(O)ccnc34)cc2)c1 [Example 28, 7-hydroxy-3-[4-(3-methoxyphenylmethyl)phenyl]pyrazolo[1,5-a]pyrimidine]						1.2e-07	88.5	74.3	66	53.4	> 1			
